Results published in patent publication US20260355171A1, “INHIBITORS AND USES THEREFOR” (priority 2022, published 2026).

Experiments:
[1] = tested on: Delta variant of SARS-CoV-2
[2] = tested on: Omicron variant of SARS-CoV-2

NC(=O)C1CCN(c2ncccc2CNCc2cccc3[nH]ccc23)CC1 [Compound 22]
Titre of Delta variant [1]: Significant reduction of titres
Titre of Omicron variant [2]: Significant reduction of titres
